Literature values in US20030175349A1, “Pharmaceutical compostion for extended/sustained release of a therapeutically active ingredient” (COUNCIL OF SCIENTIFIC AND INDUSTRIAL RESEARCH, priority 2002, published 2003).

Structure (SMILES) | solubility in water (in words) | parts of water in which 1 part is soluble (at 20° C.)
CC(=O)Oc1ccccc1C(=O)O [Aspirin, aspirin] | slightly soluble in water | –
Cc1ccc(S(=O)(=O)NC(=O)NN2CC3CCCC3C2)cc1 (stereo not drawn) [Gliclazide, gliclazide] | practically insoluble in water | –
CC(=O)OCC(COC(C)=O)OC(C)=O [triacetin] | – | 14 parts of water
